From patent US4189604A, “Bestatin” (Zaidan Hojin Biseibutsu Kagaku Kenkyu Kai, priority 1975, dated 1980)
Converted amounts (≈) assume the structure as drawn. Like-named read-outs stand apart in the source and are kept apart here. Values belong to the compound of their own block, whether it stands above or below them.

Assays:
aminopeptidase B = biological target: T1, aminopeptidase B (Rattus norvegicus, UniProt O09175); experiment: Inhibitory activity against aminopeptidase B; format: biochemical; conditions: for IC50: read-out: ID50 (the source's name) (converted); for inhibitory effect relative to Bestatin: compared with Bestatin
T1 construct: aminopeptidase B solution which is prepared by Sephadex 100 chromatography as described by Hopusu et al; from tissue
T1 sequence (O09175 1-650): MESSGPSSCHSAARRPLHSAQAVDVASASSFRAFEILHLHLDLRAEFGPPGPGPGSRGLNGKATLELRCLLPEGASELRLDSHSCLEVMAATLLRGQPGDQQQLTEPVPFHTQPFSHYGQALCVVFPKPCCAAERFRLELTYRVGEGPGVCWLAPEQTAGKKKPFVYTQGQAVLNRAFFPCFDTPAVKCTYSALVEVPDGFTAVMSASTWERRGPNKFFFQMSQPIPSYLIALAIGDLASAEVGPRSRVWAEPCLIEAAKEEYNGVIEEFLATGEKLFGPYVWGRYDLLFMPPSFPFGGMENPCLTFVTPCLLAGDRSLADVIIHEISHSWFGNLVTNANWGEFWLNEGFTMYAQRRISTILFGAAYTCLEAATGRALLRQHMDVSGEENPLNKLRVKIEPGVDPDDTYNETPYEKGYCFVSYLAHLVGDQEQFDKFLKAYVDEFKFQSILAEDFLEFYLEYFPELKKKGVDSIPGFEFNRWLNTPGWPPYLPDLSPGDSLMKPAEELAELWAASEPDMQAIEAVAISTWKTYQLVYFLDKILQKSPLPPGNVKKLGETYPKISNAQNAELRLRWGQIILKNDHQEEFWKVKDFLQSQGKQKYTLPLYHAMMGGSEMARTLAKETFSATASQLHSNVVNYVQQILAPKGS
Description: (A) Inhibitory activity against aminopeptidase B Testing method: The method described by […] in Archives of Biochemistry and Biophysics 114, 557, (1966) was modfied. To the mixture of 0.3 ml. of 1 mM arginine β-naphthylamide and 1.0 Ml. of 0.1 M Tris hydrochloride buffer (pH 7.0), 0.7 Ml. of distilled water with or without a test material is added and warmed at 37° C. for 3 minutes. The reaction is started by addition of 0.2 ml. of aminopeptidase B solution which is prepared by Sephadex 100 chromatography as described by Hopusu et al. […] Fifteen minutes at room temperature thereafter, absorbance (a) at 530 nm is measured by spectrophotometer. […] The inhibition percent is calculated as follows: (b-a)/b×100.

[1] = system: plaque forming cells in the spleen; experiment: Effect on humoral antibody formation to Sheep Red Blood Cell (SRBC) in mice (JERNE's hemolytic plaque technique); format: in vivo, Mice (dd/y female); conditions: for Antibody Forming Cells Number / Antibody Forming Cells Treated Group / Non-treated Group: intraperitoneal, four days
Description: The compound of Example 28 was also tested for its humoral antibody formation to find its efficacy as an immunizing cancer inhibitor. […] For the humoral antibody formation of Bestatin per se see J. Antibiotics, 29(8), 857-859 (August, 1976).
The effect of (2RS,3RS)-3-amino-2-hydroxy-4-hydroxyphenylbutanoyl-(S)-leucine on humoral antibody formation to Sheep Red Blood Cell (SRBC) in mice was studied as follows.
Mice (dd/y female) were immunized by intravenous injection of 10^8 SRBC. Intraperitoneal injection of (2RS,3RS)-3-amino-2-hydroxy-4-hydroxyphenylbutanoyl-(S)-leucine was made soon afterwards.
Four days thereafter the number of plaque forming cells in the spleen were enumerated by JERNE's hemolytic plaque technique [Jerne, N. K.; A. A. Nordin & C. Henry: "The Agar Plaque Technique for Recognizing Antibody-producing Cells" in cell-bound antibodies (Wistar Institute Press, Philadelphia, 1963), pp. 109-122].

[2] = Biological Testing table after Example 29
[3] = pH 7.0, 37° C., 30 minutes, Table 1

IC50 (aminopeptidase B; [2]): 21.6 nM
inhibitory effect relative to Bestatin (aminopeptidase B): one-fourteenth of Bestatin
Structure (SMILES): CC(C)C[C@H](NC(=O)[C@@H](O)[C@H](N)Cc1ccc(O)cc1)C(=O)O [Example 29, (2S,3R)-3-amino-2-hydroxy-4-p-hydroxyphenylbutanoyl-(S)-leucine]

ID50 (aminopeptidase B; [3]): 1.25 µg/mL (≈ 4.05 µM)
Structure (SMILES): CC(C)C[C@H](NC(=O)[C@@H](O)[C@@H](N)Cc1ccccc1)C(=O)O [No. 2, (2S,3S)-3-amino-2-hydroxy-4-phenylbutanoyl-(S)-leucine]

ID50 (aminopeptidase B; [3]): 0.22 µg/mL (≈ 0.674 µM)
Structure (SMILES): CSCC[C@H](NC(=O)[C@@H](O)[C@H](N)Cc1ccccc1)C(=O)O [No. 8, (2S,3R)-3-amino-2-hydroxy-4-phenylbutanoyl-(S)-methionine]

ID50 (aminopeptidase B; [3]): 4.2 µg/mL (≈ 12.3 µM)
Structure (SMILES): N[C@H](Cc1ccccc1)[C@H](O)C(=O)N[C@@H](Cc1ccccc1)C(=O)O [No. 12, (2S,3R)-3-amino-2-hydroxy-4-phenylbutanoyl-(S)-phenylalanine]

ID50 (aminopeptidase B; [3]): 25 µg/mL (≈ 77.1 µM)
Structure (SMILES): N[C@H](Cc1ccccc1)[C@H](O)C(=O)N[C@@H](CCC(=O)O)C(=O)O [No. 14, (2S,3R)-3-amino-2-hydroxy-4-phenylbutanoyl-(S)-glutamic acid]

ID50 (aminopeptidase B; [3]): 56 µg/mL (≈ 190 µM)
Structure (SMILES): CC(C)C[C@H](NC(=O)C(O)[C@H](N)c1ccccc1)C(=O)O (stereo partly drawn) [No. 18, (2RS,3R)-3-amino-2-hydroxy-3-phenylpropionyl-(S)-leucine]

ID50 (aminopeptidase B; [3]): 0.01 µg/mL (≈ 0.0283 µM)
Structure (SMILES): CC(C)C[C@H](NC(=O)[C@@H](O)[C@H](N)Cc1ccc([N+](=O)[O-])cc1)C(=O)O [No. 22, (2S,3R)-3-amino-2-hydroxy-4-p-nitrophenylbutanoyl-(S)-leucine]

ID50 (aminopeptidase B; [3]): 0.10 µg/mL (≈ 0.309 µM)
Structure (SMILES): CC(C)C[C@H](NC(=O)[C@@H](O)[C@H](N)Cc1ccc(N)cc1)C(=O)O [No. 23, (2S,3R)-3-amino-2-hydroxy-4-p-aminophenylbutanoyl-(S)-leucine]

IC50 (aminopeptidase B; [3]): 3340 nM
Structure (SMILES): CC(C)C[C@H](NC(=O)[C@@H](O)[C@H](N)CC1CCCCC1)C(=O)O [No. 24, (2S,3R)-3-amino-2-hydroxy-4-cyclohexylbutanoyl-(S)-leucine]

Further lines, the compound ahead of its results:

Structure (SMILES): CC(C)C[C@H](NC(=O)C(O)C(N)Cc1ccc(O)cc1)C(=O)O (stereo partly drawn) [Example 28, (2RS,3RS)-3-amino-2-hydroxy-4-p-hydroxyphenylbutanoyl-(S)-leucine]
IC50 (aminopeptidase B; [2]): 308 nM
inhibitory effect relative to Bestatin (aminopeptidase B): substantially the same inhibitory effects as Bestatin
number of antibody forming cells relative to non-treated mice ([1]; 1 mcg.): 1.41 times
number of antibody forming cells relative to non-treated mice ([1]; 10 mcg.): 1.66 times
Antibody Forming Cells Number ([1]; dose 1 mg.): 207,400±8,025
Antibody Forming Cells Treated Group / Non-treated Group ([1]; dose 1 mg.): 1.66
Antibody Forming Cells Number ([1]; dose 0.1 mcg.): 141,000±5,700
Antibody Forming Cells Treated Group / Non-treated Group ([1]; dose 0.1 mcg.): 1.13
Antibody Forming Cells Number ([1]; dose 1 mcg.): 175,800±8,200
Antibody Forming Cells Treated Group / Non-treated Group ([1]; dose 1 mcg.): 1.41
Antibody Forming Cells Number ([1]; dose 10 mcg.): 208,000±7,180
Antibody Forming Cells Treated Group / Non-treated Group ([1]; dose 10 mcg.): 1.66
Antibody Forming Cells Number ([1]; dose 100 mcg.): 261,000±11,700
Antibody Forming Cells Treated Group / Non-treated Group ([1]; dose 100 mcg.): 2.09
number of humoral antibody (forming) cells ([1]; in words): increasing the number of humoral antibody cells to a considerable degree
number of nonspecific antibody forming cells ([1]; in words): did not increase the weight of the spleen or the number of nonspecific antibody forming cells
weight of the spleen ([1]; in words): did not increase the weight of the spleen
number of humoral antibody (forming) cells ([1]; in words, listed as (2RS,3RS)-3-amino-2-hydroxy-4-hydroxybutanoyl-(S)-leucine): excellent effect of increasing the number of antibody forming cells

Structure (SMILES): CC(C)C[C@@H](NC(=O)[C@@H](O)[C@H](N)Cc1ccccc1)C(=O)O [No. 3, (2S,3R)-3-amino-2-hydroxy-4-phenylbutanoyl-(R)-leucine]
ID50 (aminopeptidase B; [3]): 0.56 µg/mL (≈ 1.82 µM)

Structure (SMILES): CC(C)C[C@@H](NC(=O)[C@@H](O)[C@@H](N)Cc1ccccc1)C(=O)O [No. 4, (2S,3S)-3-amino-2-hydroxy-4-phenylbutanoyl-(R)-leucine]
IC50 (aminopeptidase B; [3]): 130 nM

Structure (SMILES): N[C@H](Cc1ccccc1)[C@H](O)C(=O)NCC(=O)O [No. 5, (2S,3R)-3-amino-2-hydroxy-4-phenylbutanoyl-glycine]
ID50 (aminopeptidase B; [3]): 21.5 µg/mL (≈ 85.2 µM)

Structure (SMILES): CC[C@H](C)[C@H](NC(=O)[C@@H](O)[C@H](N)Cc1ccccc1)C(=O)O [No. 7, (2S,3R)-3-amino-2-hydroxy-4-phenylbutanoyl-(S)-isoleucine]
IC50 (aminopeptidase B; [3]): 162 nM

Structure (SMILES): NC(=O)CC[C@H](NC(=O)[C@@H](O)[C@H](N)Cc1ccccc1)C(=O)O [No. 9, (2S,3R)-3-amino-2-hydroxy-4-phenylbutanoyl-(S)-glutamine]
ID50 (aminopeptidase B; [3]): 1.2 µg/mL (≈ 3.71 µM)

Structure (SMILES): CCCC[C@H](NC(=O)[C@@H](O)[C@H](N)Cc1ccccc1)C(=O)O [No. 11, (2S,3R)-3-amino-2-hydroxy-4-phenylbutanoyl-(S)-norleucine]
ID50 (aminopeptidase B; [3]): 0.13 µg/mL (≈ 0.422 µM)

Structure (SMILES): N[C@H](Cc1ccccc1)[C@H](O)C(=O)N[C@@H](CO)C(=O)O [No. 13, (2S,3R)-3-amino-2-hydroxy-4-phenylbutanoyl-(S)-serine]
IC50 (aminopeptidase B; [3]): 2550 nM

Structure (SMILES): CCCCCCC(NC(=O)[C@@H](O)[C@H](N)Cc1ccccc1)C(=O)O (stereo partly drawn) [No. 15, (2S,3R)-3-amino-2-hydroxy-4-phenylbutanoyl-(RS)-2-aminooctanoic acid]
ID50 (aminopeptidase B; [3]): 3.1 µg/mL (≈ 9.21 µM)

Structure (SMILES): CC(C)C[C@H](NC(=O)C(O)[C@@H](C)N)C(=O)O (some centres unmarked) [No. 16]
ID50 (aminopeptidase B; [3]): 16 µg/mL (≈ 68.9 µM)

Structure (SMILES): CC(C)C[C@H](NC(=O)C(O)[C@H](N)CC(C)C)C(=O)O (stereo partly drawn) [No. 17, (2RS,3R)-30 amino-2-hydroxy-5-methylhexanoyl-(S)-leucine]
ID50 (aminopeptidase B; [3]): 12 µg/mL (≈ 43.7 µM)

Structure (SMILES): CC(C)C[C@H](NC(=O)C(O)C(N)Cc1ccc(Cl)cc1)C(=O)O (stereo partly drawn) [No. 19, (2RS,3RS)-3-amino-2-hydroxy-4-p-chlorophenylbutanoyl-(S)-leucine]
number of antibody forming cells compared with non-treated group ([1]; 10 mcg., in words): nearly equal to that of non-treated group
Antibody Forming Cells Number ([1]; dose 1 mg.): 208,750±8,000
Antibody Forming Cells Treated Group / Non-treated Group ([1]; dose 1 mg.): 1.67
Antibody Forming Cells Number ([1]; dose 10 mcg.): 133,750±5,600
Antibody Forming Cells Treated Group / Non-treated Group ([1]; dose 10 mcg.): 1.07

Structure (SMILES): Cc1ccc(CC(N)C(O)C(=O)N[C@@H](CC(C)C)C(=O)O)cc1 (stereo partly drawn) [No. 21, (2RS,3RS)-3-amino-2-hydroxy-4-p-methylphenylbutanoyl-(S)-leucine]
ID50 (aminopeptidase B; [3]): 0.01 µg/mL (≈ 0.031 µM)
